# Data published in patent US20090239841A1, “Diaryl Ureas as CB1 Antagonists” (priority 2004, published 2009).
# Biological target: T1, hCB1 (Homo sapiens, UniProt P21554)
# T1 construct: made in house; host or cells: Sf9 insect cells (baculovirus), P2 membranes
# Test: Agonist-induced GTP binding (GTPγ35S) assay at CB1, Example 8
# Format: biochemical
# Conditions: IC50 at CB1, determined as described in Example 8; read-out: IC50
# Description: As noted above, compounds provided herein are CB1 antagonists. Certain such compounds are non-competitive CB1 antagonists. In addition, or alternatively, certain compounds provided herein display CB1 specificity. CB1 antagonist activity may be confirmed using an agonist-induced GTP binding assay, such as the assay described in Example 8. Such assays employ a CB1-containing cell membrane preparation (e.g., a preparation of membranes of insect cells that recombinantly express CB1) to determine the effect of a test compound on CB1 agonist-induced GTP binding to CB1. Briefly, a first cell membrane preparation comprising CB1 is contacted with: (i) labeled GTP; (ii) a CB1 agonist; and (iii) a test compound to yield a test membrane preparation. Simultaneously, or in either order, a second cell membrane preparation comprising CB1 is contacted with: (i) labeled GTP; and (ii) a CB1 agonist to yield a control membrane preparation. The labeled GTP is preferably GTPγ^35S; a representative CB1 agonist is CP55,940. Such contact is performed under conditions that are suitable for GTP binding to CB1, such as the conditions described in Example 8. The concentrations of labeled GTP and CB1 agonist used are generally concentrations that are sufficient to result in a detectable increase in the amount of labeled GTP bound to the membrane preparation in the presence of CB1 agonist. Such concentrations may be determined by routine experimentation; representative suitable concentrations are provided in Example 8. Generally, a range of test compound concentrations is used (e.g., ranging from 10^−10M to 10^−5M).
# After sufficient contact (e.g., incubation) to allow GTP binding to the membrane preparations, a signal that corresponds to (represents) the amount of bound, labeled GTP is detected (typically, unbound labeled GTP is first removed via a washing step). In other words, simultaneously or in either order: (i) a test signal that represents an amount of bound, labeled GTP in the test membrane preparation is detected; and (ii) a control signal that represents an amount of bound, labeled GTP in the control membrane preparation is detected. The nature of the signal detected is determined by the type of label used. For example, if the GTP is radioactively labeled, the signal detected is radioactive decay (e.g., via liquid scintillation spectrometry). The CB1 antagonist activity of the test compound is then determined by comparing the test signal with the control signal.
# This assay can also be used to detect partial agonism mediated by antagonist compounds. A compound being analyzed in this assay is referred to herein as a “test compound.” Agonist-stimulated GTP binding activity is measured as follows: Four independent baculoviral stocks (one directing the expression of hCB1 and three directing the expression of each of the three subunits of a heterotrimeric G-protein) are used to infect a culture of Sf9 cells as described in Example 5.
# Agonist-stimulated GTP binding on purified membranes (as described in Example 6) is initially assessed using the cannabinoid agonist CP55,940 to ascertain that the receptor/G-protein-alpha-beta-gamma combination(s) yield a functional response as measured by GTP binding.
# P2 membranes are resuspended by Dounce homogenization (tight pestle) in GTP binding assay buffer (50 mM Tris pH 7.4, 120 mM NaCl, 5 mM MgCl2, 2 mM EGTA, 0.1% BSA, 0.1 mM bacitracin, 10 KIU/mL aprotinin, 5 μM GDP) and added to reaction tubes at a concentration of 10 μg protein/reaction tube. After adding increasing doses of the agonist CP55,940 at concentrations ranging from 10^−12 M to 10^−6 M, reactions are initiated by the addition of […] GTPγ^35S. In competition experiments, non-radiolabeled test compounds are added to separate assays at concentrations ranging from 10^−10 M to 10^−5 M along with 1 nM CP55,940 to yield a final volume of 0.25 mL. […]
# T1 sequence (P21554 whole entry): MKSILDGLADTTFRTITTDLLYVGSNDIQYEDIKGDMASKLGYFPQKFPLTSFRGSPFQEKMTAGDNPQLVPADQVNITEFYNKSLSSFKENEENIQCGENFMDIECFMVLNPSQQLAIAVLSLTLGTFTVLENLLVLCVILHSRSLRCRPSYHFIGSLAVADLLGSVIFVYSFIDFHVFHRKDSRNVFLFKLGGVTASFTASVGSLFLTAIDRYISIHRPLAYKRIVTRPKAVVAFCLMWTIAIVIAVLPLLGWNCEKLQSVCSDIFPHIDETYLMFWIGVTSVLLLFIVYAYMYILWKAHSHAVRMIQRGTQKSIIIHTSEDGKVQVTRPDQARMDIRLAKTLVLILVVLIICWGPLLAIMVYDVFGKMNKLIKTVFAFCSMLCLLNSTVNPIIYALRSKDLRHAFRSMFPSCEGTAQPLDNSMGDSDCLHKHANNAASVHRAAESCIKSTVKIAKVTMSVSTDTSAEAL
row,IC50,SMILES
1,< 2000 nM,"COc1cccc(NC(=O)Nc2ccc(C(C)=O)cc2)c1 [Compound 408, 1-(4-acetylphenyl)-3-(3-methoxyphenyl)urea]"
2,< 2000 nM,"CCCc1ccc(NC(=O)Nc2cccc(F)c2)cc1 [Compound 327, 1-(3-fluorophenyl)-3-(4-propylphenyl)urea]"
3,< 2000 nM,"CCOc1ccc(NC(=O)Nc2cccc(C)c2)cc1 [Compound 302, 1-(4-ethoxyphenyl)-3-(3-methylphenyl)urea]"
4,< 2000 nM,"N#CCc1ccc(NC(=O)Nc2cccc(Cl)c2)cc1 [Compound 484, 1-(3-chlorophenyl)-3-[4-(cyanomethyl)phenyl]urea]"
5,< 2000 nM,"CC(C)c1ccc(NC(=O)Nc2ccc(OC(F)F)cc2)cc1 [Compound 518, 1-[4-(difluoromethoxy)phenyl]-3-(4-isopropylphenyl)urea]"
6,< 2000 nM,"CCOC(=O)c1ccc(NC(=O)Nc2ccc(CC)cc2)cc1 [Compound 498, ethyl 4-({[(4-ethylphenyl)amino]carbonyl}amino)benzoate]"
7,< 2000 nM,"CCOc1cccc(NC(=O)Nc2ccc(F)c(F)c2)c1 [Compound 683, 1-(3,4-difluorophenyl)-3-(3-ethoxyphenyl)urea]"
8,< 2000 nM,"CC(=O)c1ccc(NC(=O)Nc2ccc(OCC#N)cc2)cc1 [Compound 508, 1-(4-acetylphenyl)-3-[4-(cyanomethoxy)phenyl]urea]"
9,< 2000 nM,"N#CCc1ccc(NC(=O)Nc2cccc(C#N)c2)cc1 [Compound 503, 1-[4-(cyanomethyl)phenyl]-3-(3-cyanophenyl)urea]"
10,< 2000 nM,"COC(=O)c1ccc(NC(=O)Nc2ccccc2)cc1 [Compound 481, methyl 4-[(anilinocarbonyl)amino] benzoate]"
11,< 2000 nM,"CCOC(=O)c1ccc(NC(=O)Nc2cccc(CCO)c2)cc1 [Compound 751, ethyl 4-[({[3-(2-hydroxyethyl)phenyl]amino}carbonyl)amino] benzoate]"
12,< 2000 nM,"CCc1ccc(NC(=O)Nc2ccccn2)cc1 [Compound 638, 1-(4-ethylphenyl)-3-pyridin-2-ylurea]"
13,< 2000 nM,"Cc1ccc(NC(=O)Nc2ccc(Cl)cc2)cc1Cl [Compound 445, 1-(3-chloro-4-methylphenyl)-3-(4-chlorophenyl)urea]"
14,< 2000 nM,"CCc1ccc(NC(=O)Nc2ccc(F)cc2)cc1 [Compound 325, 1-(4-ethylphenyl)-3-(4-fluorophenyl)urea]"
15,< 2000 nM,CCN(CC)C(=O)c1ccccc1NC(=O)Nc1ccc(OC(F)F)cc1 [Compound 603]
16,< 2000 nM,"CCCc1ccc(NC(=O)Nc2cccc(C(=O)OC)c2)cc1 [Compound 650, methyl 3-({[(4-propylphenyl)amino]carbonyl}amino)benzoate]"
17,< 2000 nM,"CC(=O)c1cccc(NC(=O)Nc2cccc(OC(C)C)c2)c1 [Compound 419, 1-(3-acetylphenyl)-3-(3-isopropoxyphenyl)urea]"
18,< 2000 nM,"CCOc1ccc(NC(=O)Nc2cccc([N+](=O)[O-])c2)cc1 [Compound 559, 1-(4-ethoxyphenyl)-3-(3-nitrophenyl)urea]"
19,< 2000 nM,"CCCOc1ccc(NC(=O)Nc2ccc(F)cc2)cc1 [Compound 362, 1-(4-fluorophenyl)-3-(4-propoxyphenyl)urea]"
20,< 2000 nM,"CC(C)Oc1cccc(NC(=O)Nc2cccc(Cl)c2)c1 [Compound 400, 1-(3-chlorophenyl)-3-(3-isopropoxyphenyl)urea]"
21,< 2000 nM,"CC(C)Oc1ccc(NC(=O)Nc2ccccc2OC(F)F)cc1 [Compound 537, 1-[2-(difluoromethoxy)phenyl]-3-(4-isopropoxyphenyl)urea]"
22,< 2000 nM,"Cc1ccc(NC(=O)Nc2ccc(C(C)C)cc2)cc1F [Compound 626, 1-(3-fluoro-4-methylphenyl)-3-(4-isopropylphenyl)urea]"
23,< 2000 nM,"CCCc1ccc(NC(=O)Nc2cccc(C#N)c2)cc1 [Compound 350, 1-(3-cyanophenyl)-3-(4-propylphenyl)urea]"
24,< 2000 nM,"CC(=O)c1cccc(NC(=O)Nc2ccc(C)c(F)c2)c1 [Compound 449, 1-(3-acetylphenyl)-3-(3-fluoro-4-methylphenyl)urea]"
25,< 2000 nM,"CCCc1ccc(NC(=O)Nc2ccc(F)cc2)cc1 [Compound 328, 1-(4-fluorophenyl)-3-(4-propylphenyl)urea]"
26,< 2000 nM,"CC(=O)c1ccc(NC(=O)Nc2ccc(OC(C)C)cc2)cc1 [Compound 424, 1-(4-acetylphenyl)-3-(4-isopropoxyphenyl)urea]"
27,< 2000 nM,"Cc1ccc(NC(=O)Nc2ccc(-n3cnc(Cl)c3Cl)cc2)cc1 [Compound 320, 1-[4-(4,5-dichloro-1H-imidazol-1-yl)phenyl]-3-(4-methylphenyl)urea]"
28,< 2000 nM,"O=C(Nc1ccccc1)Nc1cccc(OC(F)F)c1 [Compound 376, 1-[3-(difluoromethoxy)phenyl]-3-phenylurea]"

# Same assay, conditions: Table I; IC50 at CB1, GTP binding with 1 nM CP55,940; read-out: IC50
row,IC50,SMILES
1,< 2000 nM,"CCc1ccc(NC(=O)Nc2ccc(C(C)=O)cc2)cc1 [Compound 22, N-(4-acetylphenyl)-N′-(4-ethylphenyl)urea]"
2,< 2000 nM,"CCCCc1ccc(NC(=O)Nc2ccccc2)cc1 [Compound 46, N-(4-butylphenyl)-N′-phenylurea]"

# Same assay, conditions: Table II; IC50 at CB1, GTP binding with 1 nM CP55,940; read-out: IC50
row,IC50,SMILES
1,< 2000 nM,"Cc1ccc(NC(=O)Nc2cccc(C#N)c2)cc1 [Compound 186, N-(3-cyanophenyl)-N′-(4-methylphenyl)urea]"
2,< 2000 nM,"Cc1ccc(NC(=O)Nc2cccc(OC(F)F)c2)cc1 [Compound 218, N-[3-(difluoromethoxy)phenyl]-N′-(4-methylphenyl)urea]"
3,< 2000 nM,"CC(=O)c1ccc(NC(=O)Nc2ccc(F)cc2)cc1 [Compound 189, N-(4-acetylphenyl)-N′-(4-fluorophenyl)urea]"
4,< 2000 nM,"Cc1cccc(NC(=O)Nc2cccc(OC(C)C)c2)c1 [Compound 156, N-(3-isopropoxyphenyl)-N′-(3-methylphenyl)urea]"
5,< 2000 nM,"O=C(Nc1ccc(OC(F)F)cc1)Nc1cnc2ccccc2c1 [Compound 126, N-[4-(difluoromethoxy)phenyl]-N′-quinolin-3-ylurea]"
6,< 2000 nM,"O=C(Nc1ccc(OC(F)F)cc1)Nc1ccc(Cl)c(Cl)c1 [Compound 94, N-(3,4-dichlorophenyl)-N′-[4-(difluoromethoxy)phenyl]urea]"
7,< 2000 nM,"O=C(Nc1ccc(OC(F)F)cc1)Nc1cccc(-c2ccc(Cl)cn2)c1 [Compound 74, N-[3-(5-chloropyridin-2-yl)phenyl]-N′-[4-(difluoromethoxy)phenyl]urea]"
8,< 2000 nM,"CC(=O)c1ccc(NC(=O)Nc2ccc(C)cc2)cc1 [Compound 187, N-(4-acetylphenyl)-N′-(4-methylphenyl)urea]"
9,< 2000 nM,"CC(=O)c1ccc(NC(=O)Nc2cccc(OC(C)C)c2)cc1 [Compound 278, N-(4-acetylphenyl)-N′-(3-isopropoxyphenyl)urea]"
10,< 2000 nM,COc1ccc(-c2cccc(NC(=O)Nc3ccc(OC(F)F)cc3)c2)cn1 [Compound 72]
11,< 2000 nM,"CC(=O)c1ccc(NC(=O)Nc2ccc(OC(F)F)cc2)cc1 [Compound 288, N-(4-acetylphenyl)-N′-[4-(difluoromethoxy)phenyl]urea]"
12,< 2000 nM,"CCCOc1ccc(NC(=O)Nc2cccc(CC)c2)cc1 [Compound 243, N-(3-ethylphenyl)-N′-(4-propoxyphenyl)urea]"
13,< 2000 nM,"Cc1ccc(NC(=O)Nc2ccc(F)cc2)cc1 [Compound 172, N-(4-fluorophenyl)-N′-(4-methylphenyl)urea]"
